Results as given in PMC8641298 (ACS infectious diseases, 2020).

Assays:
[1] = HEK293 cytotoxicity; type: cell-based; settings: human
[2] = system: S. mansoni somules; experiment: In vitro phenotypic screen of S. mansoni somules; type: cell-based, Schistosoma mansoni
[3] = system: S. mansoni adults; experiment: In vitro phenotypic screen of S. mansoni adults; type: cell-based, Schistosoma mansoni; settings: for Phenotypic descriptors, adults 5 h / Phenotypic descriptors, adults 24 h / Phenotypic descriptors, adults 48 h: assays performed at 10 μM (footnote d)
[4] = system: adult S. mansoni; experiment: WormAssay, average adult worm motility; type: cell-based, Schistosoma mansoni; settings: 5 h; for WormAssay (average adult worm movement ± SD): DMSO control 104.1 ± 24.4; for EC50: Schistosoma mansoni, read-out: EC50 of paralysis measured by WormAssay
[5] = system: acetylated α-tubulin in HEK293 cells; experiment: HEK293 MT-stabilization assay; type: cell-based; settings: 4 h
[6] = HeLa cytotoxicity; type: cell-based; settings: human, HeLa cells
[7] = HEK293 cells (method text: HEK 293T)
[8] = assays performed at 10 μM (footnote d)

| EC50 [4] [nM] | Structure (SMILES) | CC50 at 48 h [1] [nM] | Phenotypic descriptors, somules (1 μM) 24 h [2] | Phenotypic descriptors, somules (1 μM) 48 h [2] | Phenotypic descriptors, somules (10 μM) 24 h [2] | Phenotypic descriptors, somules (10 μM) 48 h [2] | Phenotypic descriptors, adults (5 μM) 5 h [3] | Phenotypic descriptors, adults (5 μM) 24 h [3] | Phenotypic descriptors, adults (5 μM) 48 h [3] | WormAssay (average adult worm movement ± SD) ([4]; 5 μM) | Fold-change in acetylated α-tubulin ([5]; 1 μM) | CC50 at 48 h [6] [nM] | CC50 at 48 h [1, 7] [nM] | Phenotypic descriptors, adults 5 h [3] | Phenotypic descriptors, adults 24 h [3] | Phenotypic descriptors, adults 48 h [3] | WormAssay (average adult worm movement ± SD) [4, 8] | Fold-change in acetylated α-tubulin ([5]; 10 μM) | Fold-change in acetylated α-tubulin (significance) ([5]; either 1 or 10 μM) |
| --- | --- | --- | --- | --- | --- | --- | --- | --- | --- | --- | --- | --- | --- | --- | --- | --- | --- | --- | --- |
| – | CNCCCOc1cc(F)c(-c2c(Cl)nc3ncnn3c2N[C@@H](C)C(F)(F)F)c(F)c1 [Compound 12, cevipabulin, reference compound] | 28 | – | – | – | – | – | – | – | – | – | – | – | – | – | – | – | – | – |
| – | C[C@H](Nc1nc(-c2ccc3ccccc3n2)nc(Cl)c1-c1c(F)cc(F)cc1F)C(F)(F)F [Compound 21, (S)-6-chloro-2-(quinolin-2-yl)-5-(2,4,6-trifluorophenyl)-N-(1,1,1-trifluoropropan-2-yl)pyrimidin-4-amine] | – | N | N | R, deg | R, deg | N | N | S, on sides | 75.3 ± 18.9 | 1.95 ± 0.2 (1 μM) fold | – | – | – | – | – | – | – | – |
| – | CC1(CNc2nc(-c3cnccn3)nc(Cl)c2-c2c(F)cc(F)cc2F)N=N1 [Compound 22, 6-chloro-N-((3-methyl-3H-diazirin-3-yl)methyl)-2-(pyrazin-2-yl)-5-(2,4,6-trifluorophenyl)-pyrimidin-4-amine] | – | R, deg | R, deg | R, deg | R, deg | N | N | Unc | 131.4 ± 27.4 | 2.68 ± 0.04 (1 μM) fold | 40 ± 12 | 50 ± 10 | – | – | – | – | – | – |
| – | C[C@H](Nc1nc(-c2nccs2)nc(Cl)c1-c1c(F)cc(F)cc1F)C(F)(F)F [Compound 23, (S)-6-chloro-2-(thiazol-2-yl)-5-(2,4,6-trifluorophenyl)-N-(1,1,1-trifluoropropan-2-yl)pyrimidin-4-amine] | – | Deg, unc | Deg, unc | Deg, unc | Deg, unc | – | – | – | – | – | 6 ± 1 | 8 ± 2 | Unc, dark^d | Unc, dark^d | Unc, dark^d | 62.1 ± 26.4^d | – | – |
| – | C[C@H](Nc1nc(-c2ccco2)nc(Cl)c1-c1c(F)cc(F)cc1F)C(F)(F)F [Compound 24, (S)-6-chloro-2-(furan-2-yl)-5-(2,4,6-trifluorophenyl)-N-(1,1,1-trifluoropropan-2-yl)pyrimidin-4-amine] | – | N | N | N | Deg, unc | – | – | – | – | – | – | – | S^d | Unc, on sides^d | S, dark, on sides^d | 56.0 ± 21.5^d | 2.7 ± 0.2 (10 μM) fold | – |
| ~1000 | C[C@H](Nc1nc(-c2cccs2)nc(Cl)c1-c1c(F)cc(F)cc1F)C(F)(F)F [Compound 25, (S)-6-chloro-2-(thiophen-2-yl)-5-(2,4,6-trifluorophenyl)-N-(1,1,1-trifluoropropan-2-yl)pyrimidin-4-amine] | – | R, S | R, S | rounding and immobility and R, I | R, I, | I, on sides | I, on sides | I, on sides | 5.5 ± 9.8 | – | 1660 ± 612 | 1270 ± 106 | – | – | – | – | 3.0 ± 0.6 (10 μM) fold | – |
| – | C[C@H](Nc1nc(-c2cccs2)ncc1-c1c(F)cc(F)cc1F)C(F)(F)F [Compound 26, (S)-2-(thiophen-2-yl)-5-(2,4,6-trifluorophenyl)-N-(1,1,1-trifluoropropan-2-yl)pyrimidin-4-amine] | – | R, S | R | R, S | R, S | – | – | – | – | – | > 100000 | > 50000 | S^d | Unc, on sides^d | S, dark, on sides^d | 11.0 ± 14.7^d | – | NS^e |
| – | C[C@@H](Nc1nc(-c2cccs2)nc(Cl)c1-c1c(F)cc(F)cc1F)C(F)(F)F [Compound 27, (R)-6-chloro-2-(thiophen-2-yl)-5-(2,4,6-trifluorophenyl)-N-(1,1,1-trifluoropropan-2-yl)pyrimidin-4-amine] | – | R, S | R | R, I | R, I | I, on sides | I, on sides | I, on sides | 6.3 ± 9.3 | – | 27700 ± 10400 | 29400 | – | – | – | – | – | – |
| ~1000 | CC(C)[C@@H](C)Nc1nc(-c2cccs2)nc(Cl)c1-c1c(F)cc(F)cc1F [Compound 28, (R)-6-chloro-N-(3-methylbutan-2-yl)-2-(thiophen-2-yl)-5-(2,4,6-trifluorophenyl)pyrimidin-4-amine] | – | R, I | R, I | R, I | R, I | I, on sides | I, on sides | I, on sides | 2.9 ± 8.8 | – | 17400 ± 2000 | 26800 | – | – | – | – | – | – |
| ~1000 | CC(C)[C@H](C)Nc1nc(-c2cccs2)nc(Cl)c1-c1c(F)cc(F)cc1F [Compound 29, (S)-6-chloro-N-(3-methylbutan-2-yl)-2-(thiophen-2-yl)-5-(2,4,6-trifluorophenyl)pyrimidin-4-amine] | – | R, S | R, S | R, I | R, I | I, on sides | I, on sides | I, on sides | 5.0 ± 11.5 | – | 8780 ± 1390 | 29100 | – | – | – | – | – | – |
| – | CC1(CNc2nc(-c3cccs3)nc(Cl)c2-c2c(F)cc(F)cc2F)N=N1 [Compound 30, 6-chloro-N-((3-methyl-3H-diazirin-3-yl)methyl)-2-(thiophen-2-yl)-5-(2,4,6-trifluorophenyl)-pyrimidin-4-amine] | – | S | S, R | R, I | R, I | S, on sides | S, on sides | S, on sides | 12.9 ± 18.1 | – | 3890 ± 1860 | 1270 ± 35 | – | – | – | – | – | – |
| – | C[C@H](Nc1cc(Cl)nc(-c2cccs2)n1)C(F)(F)F [Compound 31, (S)-6-chloro-2-(thiophen-2-yl)-N-(1,1,1-trifluoropropan-2-yl)pyrimidin-4-amine] | – | R, unc | N | R, unc | N | N | N | N | 89.0 ± 18.6 | – | – | – | – | – | – | – | – | – |
| – | Fc1cc(F)c(-c2cnc(-c3cccs3)nc2Cl)c(F)c1 [Compound 32, 4-chloro-2-(thiophen-2-yl)-5-(2,4,6-trifluorophenyl)pyrimidine] | – | N | N | R, S | N | N | N | N | 78.0 ± 20.1 | – | – | – | – | – | – | – | – | – |
| – | O=C(C1CCCCC1)N1CC(=O)N2CCc3ccccc3C2C1 (centres unmarked) [PZQ, praziquantel, reference compound] | – | – | – | – | – | – | – | – | 1.8 ± 5.1 | – | – | – | – | – | – | – | – | – |
